Test results as given in patent publication EP3461480A1, “COMBINATION OF A DNA DAMAGE RESPONSE CELL CYCLE CHECKPOINT INHIBITORS AND BELINOSTAT FOR TREATING CANCER” (ONXEO, priority 2017, dated 2019).

Legend:
Format in all cases: cell-based
[1] = system: non-tumor mammary cell line MCF-10A; experiment: XTT cell survival assay, non-tumor cells MCF-10A; details: same drug doses as MDA-MB-231, 7 days; for sensitivity of non-tumor cells: XTT survival
Description: Following drug exposure, cell survival was measured using the XTT assay (Sigma Aldrich). […] Following drug exposure, cell survival was measured using the XTT assay (Sigma Aldrich).

[2] = system: triple negative breast cancer (TBNC) cell line MDA-MB-231; experiment: XTT cell survival assay and CalcuSyn combination index, MDA-MB-231; details: Homo sapiens, monotherapy, XTT assay, dose at which 50% of the cells are viable
Description: (§1) Cell cultures were performed with the triple negative breast cancer (TBNC) cell line MDA-MB-231, the histiocytic lymphoma cell line U937 and the non-tumor mammary cell line MCF-10A. Cells were grown according to the supplier's instructions. Cell lines were maintained at 37°C in a humidified atmosphere at 5% CO2, except the MDA-MB-231 cell line which was maintained at 0% CO2.
(§2) In a first step, the characterization of the effect of drugs monotherapy on cell survival (tumour and non-tumour cells) was performed. MDA-MB-231 (5.10^3 cells/well), MCF-10A (5.10^3 cells/well) and U937 (2.10^4 cells/well) were seeded in 96 well-plates and incubated 24 hours at +37°C before addition of the drug at increasing concentrations for 4 to 7 days. Following drug exposure, cell survival was measured using the XTT assay (Sigma Aldrich). Briefly, the XTT solution was added directly to each well containing cell culture and the cells incubated for 4 to 24 hours at 37°C before reading the absorbance at 490 nm and 690 nm using a microplate reader (BMG Fluostar, Galaxy). Cell survival is calculated as the ratio of living treated cells to living mock-treated cells. The IC50 (which represents the dose at which 50% of the cells are viable) is calculated by a non-linear regression model using GraphPad Prism software (version 5.04) by plotting the percentage viability against the Log of the drug concentration on each cell line.
(§3) In a second step, analysis and quantification of the drug combination efficacy were performed. Cells were seeded in 96-well plates at the appropriate densities and treated with belinostat (PXD-101 - Spectrum) and/or ATR (ATRi - AZD6738, Selleckchem; VE-821, Selleckchem) simultaneously during 4 to 7days. Belinostat + ATRi combinations was performed at a constant ratio (from IC50/8 to IC50*8) as previously described (Chou TC, Talalay P. Adv Enzyme Regul. 1984;22:27-55 (Quantitative analysis of dose-effect relationships: the combined effects of multiple drugs or enzyme inhibitors). Cell survival was measured using the XTT assay (see above).
Combination efficacy is evaluated by "the combination index (CI)" which is determined using the CalcuSyn software tool based on the Chou Talalay method. A CI could be interpreted as follows: CI<1, =1, and >1 indicate synergism; additive effect and antagonism, respectively (CalculSyn manual, Biosoft, 2006). Note that we define synergism as a more than expected additive effect, and antagonism as a less than expected additive effect. […]
(§4) In a second step, analysis and quantification of the drug combination efficacy were performed. […] Cell survival is measured using the XTT assay (see above).
(§5) Combination efficacy is evaluated by "the combination index (CI)" which was determined using the CalcuSyn software tool based on the Chou Talalay method. […]

[3] = system: histiocytic lymphoma cell line U937; experiment: XTT cell survival assay and CalcuSyn combination index, U937; details: Homo sapiens, U-937, monotherapy, XTT assay, dose at which 50% of the cells are viable
Description: as §1
as §2, with “The IC50 (which represents the dose at which 50% of the cells are viable) is calculated by a non-linear regression model using GraphPad Prism software (version 5.04) by plotting the percentage viability against the Log of the drug concentration on each cell line.” left out
as §3, with “Cells were seeded in 96-well plates at the appropriate densities and treated with belinostat (PXD-101 - Spectrum) and/or ATR (ATRi - AZD6738, Selleckchem; VE-821, Selleckchem) simultaneously during 4 to 7days.” left out
Combination efficacy is evaluated by "the combination index (CI)" which is determined using the CalcuSyn software tool based on the Chou Talalay method. […]
as §4, §5

Row | SMILES | sensitivity of non-tumor cells on adding belinostat ([1]; inhibitor plus belinostat) | sensitivity of non-tumor cells [1] | IC50 [2] [µM] | IC50 [3] [µM]
1 | C[C@@H]1COCCN1c1cc(C2([S@](C)(=N)=O)CC2)nc(-c2cc[nH]c3nccc2-3)n1 [AZD6738, 4-[4-[1-[[S(R)]-S-methylsulfonimidoyl]cyclopropyl]-6-[(3R)-3-methyl-4-morpholinyl]-2-pyrimidinyl]-1H-pyrrolo[2,3-b]pyridine] | didn't increase | showed a sensitivity | 2.5 | 0.5
2 | O=C(/C=C/c1cccc(S(=O)(=O)Nc2ccccc2)c1)NO [Belinostat, (2E)-N-hydroxy-3-[3-(phenylsulfamoyl)phenyl]prop-2-enamide] | – | insensitive | 0.25 | 0.25
3 | Cc1cnc(NC(=O)Nc2cc(Br)c(C)cc2OC[C@@H]2CNCCO2)cn1 [LY2603618, 1-[5-bromo-4-methyl-2-[[(2S)-morpholin-2-yl]methoxy]phenyl]-3-(5-methylpyrazin-2-yl)urea] | – | showed a sensitivity | 3.2 | 1.1
4 | CS(=O)(=O)c1ccc(-c2cnc(N)c(C(=O)Nc3ccccc3)n2)cc1 [VE-821, 3-amino-6-(4-methylsulfonylphenyl)-N-phenylpyrazine-2-carboxamide] | – | – | 18 | –
